In US6207648A, “Methods of using cytochrome P450 reductase for the enhancement of P450-based anti-cancer gene therapy” (priority 1998, dated 2001):

Key:
[1] = tested on: 9L gliosarcoma cells (parental, CYP2B1+, CYP2B1+ RED+++); assay: In vitro colony formation cytotoxicity assay (Example 1); type: cell-based, rat
Text: FIGS. 2A and 2C depict the results of a colony formation cytotoxicity assay.
FIG. 3A depicts results from a colony formation cytotoxicity assay. […] The survival fraction is expressed as the number of colonies in each treatment group compared to the untreated control.
Corresponding controls received no drug treatment.

[2] = tested on: parental 9L cells; assay: Limited dilution assay of conditioned media, bystander killing of parental 9L cells; type: cell-based, rat; conditions: PR11, PR7 vs P3, P17; 2 mM CPA 48 h
Procedure: FIG. 5 is a graph depicting the effects of culture media from P450 and RED-transduced tumor cells incubated with CPA, on the survival of wild-type tumor cells. […] Parental 9L cells seeded in 30 mm plates (10^4 cells/well) in duplicate were cultured with 5-50% of condition media collected from each of the indicated cell lines (1.5×10^6) incubated with 2 mM CPA for 48 hours as described below in the "Materials Methods" section of Example 1. Five days after treatment, the number of viable parental 9L cells was determined using a hemacytometer based on trypan blue exclusion (mean for duplicate values).
Limited dilution assay to evaluate bystander killing effect: 9L cells were seeded in 6-well plates at 1.5×10^6 cells/well for 12 hours, and treated with 2 mM CPA for 48 hours. The conditioned media from each well was collected, diluted 5-50% into fresh media as indicated for each experiment, and added into wells of a second set of 6-well plates pre-seeded with parental 9L cells (10^4 cells/well). Cultures were maintained for 5-7 days and colonies were scored as described for the clonogenic assay.

[3] = tested on: 9L/P450 gliosarcoma cells; assay: Growth inhibition assay of 9L/P450 cells, crystal violet (Example 2); type: cell-based, rat; conditions: for inhibition at 1000 µM: Rattus norvegicus, 96 h, 1 mM, 4 days
Procedure: Control cells for each cell line received no drug treatment. Relative cell number at the end of the experiment was determined by crystal violet staining as described below in "Material and Methods" of Example 2. Data (mean±SD, n=3) are based on the crystal violet absorbance in drug-treated plates as a percent of the corresponding drug-free controls.
Briefly, culture dishes were washed once with phosphate buffered saline (PBS), stained for 10 minutes with crystal violet (1.25 g crystal violet (Sigma) dissolved in 500 ml containing 50 ml of 37% formaldehyde and 450 ml methanol), and then washed with PBS, twice for 20 minutes per wash. Absorbance values were measured in an SLT Spectra microtiter plate reader using a 595 nm filter. Background absorbance determined from wells containing culture media alone was subtracted from each value.

[4] = tested on: 9L/pBabe, 9L/2B6/reductase and 9L/2C18-Met/reductase tumors in scid mice; assay: Tumor growth delay assay in scid mice; type: in vivo, mouse
Text: FIGS. 19A-19D are graphs depicting the results of a tumor growth delay assay in severe combined immunodeficiency (scid) mice bearing 9L/pBabe, 9L/2B6/reductase, and 9L/2C18-Met/reductase solid tumors. Shown are the effects of CPA treatment on growth of 9L/pBabe tumors growing on the left flank of scid mice that also bear either a 9L/2B6/reductase tumor (FIG. 19A) or a 9L/2C18-Met/reductase tumor ((FIG. 19C)) on the right flank. Also shown are the effects of CPA on growth of 9L/2B6/reductase (FIG. 19B) or 9L/2C18-Met/reductasetumors ((FIG. 19D)) in these same mice. Tumor areas were measured twice a week with Vernier calipers. The arrows above the x-axis in each panel indicate the days on which CPA was given by intraperitoneal (i.p.) injection at 150 mg/kg, as described in the "Materials and Methods" section of Example 2. Data shown is mean tumor area (mm^2)±SEM for n=4 tumors per treatment group. Mice not treated with CPA died earlier than the CPA-treated mice, as indicated by the earlier decrease in number of remaining mice from n =4 (initial number of mice/group) to n=3, 2, or 1. Open circles indicate CPA-treated mice; closed circles indicate saline controls.
Tumor Growth Delay Assay: Six week old male ICR/Fox Chase/outbred immunodeficient scid mice (Paine-Murrieta, G. D., et al., Cancer Chemother Pharmacol. 40:209-214 (1997)) (Taconic Farms, Germantown, N.Y.) weighing 26-31g were given subcutaneous tumor cell injections to form solid tumors. Tumor cells were grown in culture to approximately 75% confluency, harvested by trypsin digestion, washed in PBS, resuspended in fetal bovine serum-free DMEM at a concentration of 8×10^6 cells/ml and kept on ice. Mice were shaved on both hind flanks, and then were injected subcutaneously on the left flank with 4×10^6 9L/pBabe tumor cells, and on the right flank with 4×10^6 of either 9L/2B6/reductase or 9L/2C18-Met/reductase tumor cells (8 mice/group). Tumor cell injections were in a volume of 0.5 ml of serum-free DMEM using a 1/2 inch 27 g needle and 1 ml syringe. Tumor growth was monitored twice a week using Vernier calipers (Manostat Corp., Switzerland) to measure tumor area. On days 26 and 27 after tumor cell inoculation, 4 animals from each group (four 9L/pBabe:9L/2B6/reductase mice and four 9L/pBabe:9L/2C18-Met/reductase mice) received daily intraperitoneal injections of CPA at 150 mg/kg dissolved in 0.3 ml of 0.9% NaCl. The remaining animals received saline injections. Average tumor areas ranged from 80-145 mm^2 at the time of CPA injection. Mice were given a second course of CPA treatment (150 mg/kg×2 daily injections) beginning 24-29 days after the first CPA injection, as indicated in each experiment.

O=P1(N(CCCl)CCCl)NCCCO1 (stereo not drawn) [CPA, cyclophosphamide]
sensitization of 9L cells to CPA by RED overexpression alone ([1]; line 9L-R (RED without CYP2B1)): did not sensitize 9L tumor cells | cytotoxic response of CYP2B1+ cells on RED overexpression ([1]; lines PR11, PR7 vs P3, P17, colony formation assay): significantly enhanced the cytotoxic response | cytotoxicity of conditioned media of CYP2B1+ RED+++ vs CYP2B1+ cells incubated with CPA [2]: substantially more cytotoxic | effect of P450 reductase overexpression on cytotoxicity ([3]; 9L/2B6 and 9L/2C18-Met cells, FIG. 15): markedly increased the cytotoxicity | cytotoxicity with RED transduction alone, in absence of P450 ([3]; 9L/RED, FIG. 15): did not confer CPA or IFA cytotoxicity | sensitivity of P450-negative cells ([3]; 9L/wt and 9L/pBabe, millimolar concentrations): insensitive | inhibition at 1000 µM ([3]; 9L/2B6): > 95% | inhibition at 1000 µM ([3]; 9L/2C9 and 9L/2C18-Thr): ~60% | inhibition at 1000 µM ([3]; 9L/2C19 and 9L/2C18-Met): 75 to 85% | inhibition at 1000 µM ([3]; 9L/3A4): ~90% | efficiency of P450 genes in chemosensitizing 9L cells to CPA ([3]; six human P450 genes): 2B6>2C18-Met~3A4>others | growth delay of 2B6 and P450 reductase-transduced tumors ([4]; 150 mg/kg i.p.): > 50 days | growth inhibition of 9L/2C18-Met/reductase tumors ([4]; 150 mg/kg i.p.): significant, albeit incomplete growth inhibition | growth delay for 9L/pBabe tumors ([4]; 2B6 experiment, first cycle 150 mg/kg i.p. x2, days 26 and 27): no growth delay | growth delay effect against 9L/pBabe control tumors ([4]; 2B6 experiment, second cycle): modest growth delay effect | growth delay of 9L/pBabe control tumors ([4]; 2C18-Met experiment): 5-6 days | growth delay in RED tumors ([4]; 9L/2B6/RED and 9L/2C18-Met/RED): 25 to 50 days | host toxicity ([4]; CPA-treated scid mice): no apparent increase in host toxicity | growth delay without P450 ([4]; control 9L tumors): 5 to 6 days | growth of 9L/2B6/reductase tumors ([4]; first cycle 150 mg/kg i.p. x2): fully blocked | duration of anti-tumor effect in 9L/2B6/reductase tumors ([4]; second cycle): ≥ 75 day after tumor inoculation
